This is an account of results in patent publication US4540581A, “Topical nonsteroidal anti-inflammatory compositions and uses” (Bristol-Myers Company, priority 1984, dated 1985).

Values joined by “and” are separate entries in the source; they are usually repeats but may differ in a detail not shown here. Identical values can stand only once. Counter-ions that a name gives are not always drawn.

The subject of series [1] is Croton Oil-Induced Mouse Ear Edema. Description: Croton oil-induced ear edema in mice (Example 1). Type of series: in vivo. The following applies: for % Inhibition of Croton Oil-Induced Mouse Ear Edema: topical, 6 h, mean of 10 to 15 animals; for Topical Anti-Inflammatory Activity, Croton Oil Assay (Edema): summary grade of % inhibition; for Reduction in ear edema in the croton oil assay (in words): zinterol at 1.6 and 0.2 w/v percent, bitolterol at 1.6 w/v percent. The protocol: In the croton oil assay, (which is a standard test, which is fully described in Tonelli et al, Endocrinology, vol. 77, pp. 625-634, 1965, and which is hereby incorporated herein by reference) topical application of four % croton oil in ethanol (v/v) to the ears of mice causes intercellular edema, vasodilation, and polymorphonuclear leucocyte infiltration into the dermis, leading to an increase over normal ear weight of about 70 to 100%. The inflammatory response is nearly maximal by 6 hours. In the croton oil tests, four volume % croton oil in ethanol was applied to the inner aspect of both ears of each test mouse, and various test materials in vehicle systems were applied to the outer aspect of the ears immediately following croton oil application. Control animals were exposed either to croton oil alone or to croton oil followed by the vehicle alone.
Six hours after exposure to croton oil and/or test material, animals were sacrificed; and punch biopsies of the ears were weighed and compared to the respective vehicle control.
Compounds were tested in simple solutions, including dimethylacetamide/acetone/ethanol (i.e., DMAC/A/E v/v 40/30/30) and N-methyl pyrrolidone/ethanol (NMP/E v/v 50/50). Comparative controls were chosen based on their known activity in each of the three above-described animal assays and included in all three tests (in Examples 1, 2 and 3) hydrocortisone valerate (HCV) in the croton oil and oxazolone assays, indomethacin (which is a potent aspirin-like nonsteroidal anti-inflammatory agent) in the UVB test, and salbutamol (a β2 agonist, discussed above in the Background of the Invention).
(§1) The percent inhibition of induced mouse ear edema (or erythema) for each of the three models (in Examples 1, 2 and 3) is calculated: [formula]

Series [2] deals with Oxazolone-Induced Edema in Mouse Ear. Put plainly: Oxazolone-induced ear edema in mice (Example 2). Type of series: in vivo. The conditions noted are these: for % Inhibition of Oxazolone-Induced Edema in Mouse Ear: topical, mean of 10 to 15 animals; for Topical Anti-Inflammatory Activity, Oxazolone Assay (Edema): summary grade of % inhibition. From the text: Oxazolone-induced contact sensitization in mice is characterized by edema and cellular infiltration, primarily of the monocyte type, with close to 100% increase in the mouse ear weight.

The test system of series [3] is UVB-Induced Erythema in Guinea Pig. Description: UVB-induced erythema in guinea pigs (Example 3). Type of series: in vivo. The conditions noted are these: for Topical Anti-Inflammatory Activity, UV-B Assay (Erythema): summary grade of % inhibition; for Activity in the UVB assay (in words): zinterol 3 and 1.6 weight percent, indomethacin 1 weight percent. The protocol:
as §1
In the UVB test, cutaneous erythema is induced in guinea pigs.This test is a standard test widely used for testing anti-inflammatory agents and is fully described in K. F. Swingle, "Evaluation for Anti-Inflammatory Activity", in Anti-Inflammatory Agents, vol. 2, ed. by Scherrer and Whitehouse, pp. 34-122, London: Academic Press, 1974, hereby incorporated herein by reference. In the UVB model, the test material was applied topically to the irradiated sites immediately following exposure to UVB. Erythema was scored on a 0 to 4 scale, 3 and 6 hours after irradiation.

Series [4] concerns croton oil-induced ear edema in mice. Description: Croton oil-induced ear edema in mice, compounds IV and V vs zinterol (Example 4). It is filed as in vivo, Swiss albino mice. The conditions noted are these: for % Reduction of Ear Edema Weight as Compared to Control Ears / Anti-inflammatory activity in croton oil-induced ear edema (in words): topical; for % Reduction of Ear Edema Weight as Compared to Control Ears: 6 h, single study; for % Reduction of Ear Edema Weight as Compared to Control Ears, Mean ± S.D.: mean of studies; for Anti-inflammatory activity in croton oil-induced ear edema (in words): NMP/ETOH. The protocol: In these tests, the anti-inflammatory effect of these three β2 agonists when applied topically to the croton oil-induced ear edema in mice was investigated. In these tests, 50 μl of 4 weight percent croton oil in ethanol was applied to the inner aspects of the right and the left ears of Swiss albino mice, followed immediately by 25 μof suspensions of 0.02, 0.2, and 0.8 weight percent of compound IV and compound V in N-methylpyrrolidone/Ethyl alcohol (i.e., NMP/ETOH) applied to the outer aspect of each ear. Croton oil treated and nontreated control groups were included. These control groups are included in the data as described hereinbefore.
Six hours later, the animals were sacrificed with CO2 gas, and a 5/16 inch punch biopsy of each ear was taken and weighed immediately.
The anti-inflammatory effects for the test agents were assessed by a comparison of the biopsy weights of the test and control groups.

The nature of series [5]: Solubility of active ingredient in vehicles. Type of series: physicochemical.
The mark [6] stands for this setting: 1.6 w/v %, in NMP/ETOH (50/50), salbutamol in Ethanol/H2O (50/50).
Setting [7] is: 3 w/v %, in N-methylpyrrolidone:ethanol (1:1).
The mark [8] stands for this setting: 3 w/v %, N-methyl 2-pyrrolidone/ethanol (50/50), 3 h, salbutamol in Ethanol/H2O or NMP/H2O.
[9] abbreviates: 3 w/v %, N-methyl 2-pyrrolidone/ethanol (50/50), 6 h, salbutamol in Ethanol/H2O or NMP/H2O.
Where [10] appears, read: 0.02 % weight/volume in NMP/ETOH.
Setting [11] is: 0.2 % weight/volume in NMP/ETOH.
Setting [12] is: 0.8 % weight/volume in NMP/ETOH.
Setting [13] is: 0.2 w/v %, in DMAC/acetone/ethanol (40:30:30).
Setting [14] is: 1.6 w/v %, in DMAC/acetone/ethanol (40:30:30).

With `CC(C)(Cc1ccccc1)NCC(O)c1ccc(O)c(NS(C)(=O)=O)c1` (centres unmarked) [Zinterol, 2-hydroxy-5'-[1-hydroxy-2-(2-methyl-1-phenyl-2-propylamino)ethyl]methanesulfonanilide], in series [1] (1.6 w/v %), the “Topical cutaneous anti-inflammatory activity in the croton oil assay (in words)” value was “high topical cutaneous anti-inflammatory activity”. Moreover, the “% Inhibition of Croton Oil-Induced Mouse Ear Edema” value in series [1] (1.6 w/v %, in DMAC/Acetone/ETOH, salbutamol in Ethanol/H2O (50/50)) was 69% and 50% and 81% and 66% and 63% and 48% and 45%; in series [1] (setting [6]), 69% and 63% and 70% and 48% and 73%. For the same molecule, the “Topical Anti-Inflammatory Activity, Croton Oil Assay (Edema)” value in series [1] is given as “+++ (+++ = high (60%))”. In addition, in series [1], the “Reduction in ear edema in the croton oil assay (in words)” value is recorded as “good to moderate reductions in ear edema”. For the same molecule, the “Reduction in ear edema in the oxazolone assay (in words)” value in series [2] (3 and 1.6 weight percent) was “slight reduction in ear edema with no dose-related effect”. Further, the “% Inhibition of Oxazolone-Induced Edema in Mouse Ear” value (“% Inhibition … in Mouse Ear” for short) in series [2] (setting [7]) stood at 39%. The “Topical Anti-Inflammatory Activity, Oxazolone Assay (Edema)” value in series [2] is reported as “+ (+ = Slight (30-44))”. Moreover, the “% Change in UVB-Induced Erythema in Guinea Pig” value (from here on “% Change in UVB-Induced Erythema”) in series [3] (1.6 w/v %, N-methyl 2-pyrrolidone/ethanol (50/50), 3 h) is 9%; in series [3] (1.6 w/v %, N-methyl 2-pyrrolidone/ethanol (50/50), 6 h), 26%; in series [3] (setting [8]), 48% and 75%; in series [3] (setting [9]), 18% and 25%. The “Topical Anti-Inflammatory Activity, UV-B Assay (Erythema)” value in series [3] is “+ (+ = Slight (30-44))”. In addition, the “Activity in the UVB assay (in words)” value in series [3] is given as “slight to moderate activity with no consistent dose effect”. The “% Reduction of Ear Edema Weight as Compared to Control Ears” value is 14.2% and 23.6% in series [4] (setting [10]); 39.5% and 66.2% and 46.6% in series [4] (setting [11]); 68.2% and 56.6% in series [4] (setting [12]). Moreover, the results for the “% Reduction of Ear Edema Weight as Compared to Control Ears, Mean ± S.D.” value in series [4] (setting [10]), in series [4] (setting [11]) and in series [4] (setting [12]) were 18.9 ± 6.6%, 50.8 ± 13.8% and 62.4 ± 8.2%, respectively.

`Cc1ccc(C(=O)Oc2ccc(C(O)CNC(C)(C)C)cc2OC(=O)c2ccc(C)cc2)cc1` (centres unmarked) [Bitolterol, bitolterol]: the “% Inhibition of Croton Oil-Induced Mouse Ear Edema” value in series [1] (0.2 w/v %, in NMP/ETOH (50/50)) was 42% and 25% and 34%; in series [1] (setting [6]), 61%. Moreover, the “Reduction in ear edema in the croton oil assay (in words)” value in series [1] was “good to moderate reductions in ear edema”.

As to `CCCCC(=O)O[C@]1(C(=O)CO)CC[C@H]2[C@@H]3CCC4=CC(=O)CC[C@]4(C)[C@H]3[C@@H](O)C[C@@]21C` [HCV, hydrocortisone valerate], the “% Inhibition of Croton Oil-Induced Mouse Ear Edema” value was 25% and 38% and 34% in series [1] (0.2 w/v %, in DMAC/Acetone/ETOH, salbutamol in Ethanol/H2O (50/50), minus = potentiation); 71% and 62% and 64% and 67% and 73% in series [1] (0.2 w/v %, in NMP/ETOH (50/50)); 70% and 71% in series [1] (setting [6]). Moreover, the “Topical Anti-Inflammatory Activity, Croton Oil Assay (Edema)” value in series [1] was “+++ (+++ = high (60%))”. The “% Inhibition … in Mouse Ear” value was 16% in series [2] (setting [13]); 36% and 27% in series [2] (setting [14]); 39% in series [2] (setting [7]). The “Topical Anti-Inflammatory Activity, Oxazolone Assay (Edema)” value in series [2] was “+ (+ = Slight (30-44))”.

Consider `CC(Cc1c[nH]c2ccccc12)NCC(O)c1ccc(O)c(NS(C)(=O)=O)c1` (centres unmarked) [Compound IV], for which the “% Reduction of Ear Edema Weight as Compared to Control Ears, Mean ± S.D.” value in series [4] (setting [10]) came out at 18.1 ± 10.6%; in series [4] (setting [11]), 43.7 ± 9.3%; in series [4] (setting [12]), 57.5 ± 5.8%. Besides, the “% Reduction of Ear Edema Weight as Compared to Control Ears” value is 32.9% and 48.7% and 49.4% in series [4] (setting [11]); 61.6% and 53.4% in series [4] (setting [12]). Moreover, the “Anti-inflammatory activity in croton oil-induced ear edema (in words)” value in series [4] is listed as “comparable to that of zinterol”.

For the molecule `CC(C)(C)NCC(O)c1ccc(O)c(CO)c1` (centres unmarked) [Salbutamol, salbutamol], in series [1], the “Topical Anti-Inflammatory Activity, Croton Oil Assay (Edema)” value is given as “+ (+ = Slight (30-44))”. Moreover, the “% Inhibition … in Mouse Ear” value was -1% and -9% in series [2] (setting [13]); 2% and 0% in series [2] (setting [14]); 21% and 28% in series [2] (1.6 w/v %, in N-methylpyrrolidone:ethanol (1:1)); 31% in series [2] (setting [7]). The “Topical Anti-Inflammatory Activity, Oxazolone Assay (Edema)” value in series [2] was “+ (+ = Slight (30-44))”. The “% Change in UVB-Induced Erythema” value is 9% in series [3] (1.6 w/v %, DMAC/acetone/ethanol (40/30/30), 3 h, salbutamol in Ethanol/H2O or NMP/H2O); “+4%” in series [3] (1.6 w/v %, DMAC/acetone/ethanol (40/30/30), 6 h, salbutamol in Ethanol/H2O or NMP/H2O); 42% and 45% in series [3] (setting [8]); 32% and 25% in series [3] (setting [9]). Besides, the “Topical Anti-Inflammatory Activity, UV-B Assay (Erythema)” value in series [3] was “+ (+ = Slight (30-44))”.

Consider `CC(C)(Cc1ccccc1)NCC(O)c1ccc(O)c(NS(C)(=O)=O)c1` (centres unmarked) [zinterol hydrochloride], for which the solubility in series [5] (organic solvent or mixture, cream vehicle, read-out: Amount that will dissolve in creams) was at most 7000 µg/mL. Moreover, the “Solubility (in words)” value in series [5] (water) was “water soluble”.

Regarding `COc1ccc2c(c1)c(CC(=O)O)c(C)n2C(=O)c1ccc(Cl)cc1` [Indomethacin, indomethacin], the “Topical Anti-Inflammatory Activity, Croton Oil Assay (Edema)” value in series [1] was “+ (+ = Slight (30-44))”. Also, the “Topical Anti-Inflammatory Activity, Oxazolone Assay (Edema)” value in series [2] is “+ (+ = Slight (30-44))”. Also, the “% Change in UVB-Induced Erythema” value in series [3] (1%, DMAC/acetone/ethanol (40/30/30), 3 h) was 72% and 54% and 82%; in series [3] (1%, DMAC/acetone/ethanol (40/30/30), 6 h), 43% and 48% and 54%; in series [3] (1%, N-methyl 2-pyrrolidone/ethanol (50/50), 3 h) it was 100% and 93% and 91%; in series [3] (1%, N-methyl 2-pyrrolidone/ethanol (50/50), 6 h), 74% and 85% and 87%. Moreover, the “Topical Anti-Inflammatory Activity, UV-B Assay (Erythema)” value in series [3] is reported as “+++ (+++ = high (60%))”. The “Activity in the UVB assay (in words)” value in series [3] is “good to very good activity”.

Consider `CC(C)(Cc1c[nH]c2ccccc12)NCC(O)c1ccc(O)c(NS(C)(=O)=O)c1` (centres unmarked) [Compound V], for which the “% Reduction of Ear Edema Weight as Compared to Control Ears” value worked out at 29.9% in series [4] (setting [10]), 53.5% in series [4] (setting [11]) and 69.9% in series [4] (setting [12]). Moreover, the “Anti-inflammatory activity in croton oil-induced ear edema (in words)” value in series [4] is “comparable to that of zinterol”.
